# No end group written: not given here.
# What was measured:
# Assay type in all cases: in vivo, mice
# [1] = system: C4-2-DR tumors; experiment: MRMI with MT218, C4-2-DR xenografts; settings: 0.04 mmol Gd/kg, 20 min post-injection
# From the text: Xenograft models were established by subcutaneous flank injections in athymic nu/nu mice for the 4 prostate cancer cells and tested with MRMI using 0.04 mmol Gd/kg of MT218.
# [2] = system: SCC4 tumors; experiment: MRMI of OSCC flank xenografts, SCC4; settings: MT218 0.04 mmol/kg
# Experimental: (§1) Animal experiments were performed under an animal protocol approved by the Institutional Animal Care and Use Committee (IACUC) at Case Western Reserve University (CWRU, Cleveland, OH, USA). Female 4-week-old athymic nude mice purchased from the Jackson Laboratory (Bar Harbor, ME, USA) were housed in the Animal Core Facility at CWRU. Anesthetized mice were subcutaneously inoculated in the right flank with 4×10^6 GFP/luciferase-expressing OSCC cells (n=5 per cell line) in 100 μL of a 1:1 mixture of Matrigel HC (Corning) and DPBS. Tumor size was monitored with caliper measurements. After 4 weeks of growth, tumors were sufficiently large for MRI experiments.
# MRI experiments were performed with a 3T MRS-3000 system (MR Solutions, Surrey, UK). […] This protocol was repeated on the same mice 2 days later using the untargeted clinical agent gadoteridol at the clinical dose of 0.10 mmol/kg.
# (§2) Images were exported in DICOM format and analyzed using FIJI. Contrast-to-noise ratio (CNR) for each time point was calculated as the difference between the mean tumor intensity and the mean muscle intensity, divided by the standard deviation of noise.
# [3] = system: HSC3 tumors; experiment: MRMI of OSCC flank xenografts, HSC3; settings: MT218 0.04 mmol/kg
# Experimental: as §1
# MRI experiments were performed with a 3T MRS-3000 system (MR Solutions, Surrey, UK). Tumor-bearing mice were imaged before and at 10, 20, […] spin-echo axial sequence with respiratory gating (TR=305 ms, TE=11 ms, FOV=40×40 mm, slice thickness=1 mm, number of slices=15, Nav=2, matrix=256×248). This protocol was repeated on the same mice 2 days later using the untargeted clinical agent gadoteridol at the clinical dose of 0.10 mmol/kg.
# as §2
# [4] = system: Hs578T tumors; experiment: MRMI-mediated monitoring of therapeutic response, Hs578T tumors; settings: pretreatment Hs578T tumors, MT218 0.1 mmol/kg, first 30 min
# Experimental: (§3) The targeted MRI contrast agent ZD2-N3-Gd(HP-DO3A) (MT218) was provided by Molecular Theranostics (Cleveland, OH) and was synthesized. MR images of the mice bearing MDA-MB-231 or Hs578T tumors were acquired on a 3T MRS 3000 scanner (MRS Solutions, Surrey, UK) with a mouse short quad coil. T1-weighted images were acquired following intravenous injection of MT218 at dose of 0.1 mmol/kg using a fast spin echo (FSE) axial sequence with respiratory gating (TR=305 ms, TE=11 ms, FA=90°, FOV=40×40 mm, slice thickness=1 mm, slice number=15, Nav=2, matrix=256×256). Images were acquired before and at 10, 20, and 30 min after injection of MT218. MRMI was performed before the treatment and then at week 6 post-nanoparticle treatments for MDA-MB-231 and Hs578T tumors. MRI data and image processing was conducted using FIJI (FIJI is just ImageJ) software. The contrast-to-noise ratios (CNRs) of tumors were calculated as the difference of the mean tumor intensity and the mean muscle intensity divided by the standard deviation of the noise.
# [5] = system: DLD1-DR tumors; experiment: MRMI of EDB-FN with MT218, DLD1-DR xenografts
# Experimental: Nude athymic mice (6-week-old nu/nu females) were purchased from The Jackson Laboratory (Bar Harbor, […]) and housed in the Animal Facility at CWRU. All the animal experiments were performed according to the protocol approved by the IACUC of CWRU. For assessment of drug resistance, 2 drug-resistant and 2 non-drug-resistant models were set up. About 3-4×10^6 DLD-1, RKO, DLD1-DR, and RKO-DR cells suspended in Matrigel-PBS mixture (1:1) were subcutaneously injected in the left flanks of nude mice (100 μL per mouse, 5 mice per group×4 models=20 mice). After 9 days when the tumors reached 100-200 mm3, MRMI was performed on the 4 xenograft models with 40 μmol/kg dose of MT218. The animals were then euthanized, and the tumors were harvested for post-mortem histology and IHC.
# MT218 was synthesized as previously described. Ayat, N. R., et al., ACS Med Chem Lett, 2018. 9(7): p. 730-735. Briefly, click reaction between alkynyl-ZD2 and N3-Gd(HP-DO3A) was performed in the presence of CuSO4 and ascorbate at room temperature, followed by FLASH chromatography purification and validation of MT218 by MALDI-TOF mass spectrometry (m.w. 1443). For assessment of drug resistance and therapeutic monitoring, MRMI was performed in a 3T MRS 3000 scanner (MR Solutions, Surrey, UK) with a mouse short quad coil. The mice were anesthetized with isofluorane and tail vein catheter was setup. T1-weighted MR images were obtained before (pre-contrast) and 25 min after injection (post-contrast) of 40 μmol/kg dose of MT218 [ZD2-N3—Gd(HP-DO3A)]. The following two sequences were used with respiratory gating: axial fast spin echo (FSE) (TR=305 ms, TE=11 ms, FA=90°, FOV=40 mm×40 mm, slice thickness=1 mm, slice number=15, Nav=2, matrix=256×256) and coronal FSE (TR=305 ms, TE=11 ms, FA=90°, FOV=90 mm×90 mm, slice thickness=1 mm, slice number=20, Nav=1, matrix=248×512). […] Contrast-to-noise ratios (CNRs) were calculated as (mean tumor intensity—mean muscle intensity)/standard deviation of noise. […]
# [6] = system: MDA-MB-231 tumors; experiment: MRMI-mediated monitoring of therapeutic response, MDA-MB-231 tumors; settings: pretreatment MDA-MB-231 tumors, MT218 0.1 mmol/kg, first 30 min
# Experimental: as §3
# [7] = system: CAL27 tumors; experiment: MRMI of OSCC flank xenografts, CAL27; settings: MT218 0.04 mmol/kg
# Experimental: as §1
# MRI experiments were performed with a 3T MRS-3000 system (MR Solutions, Surrey, UK). Tumor-bearing mice were imaged before and at 10, 20, and 30 minutes post-injection of the targeted contrast agent, MT218 (Molecular Theranostics, LLC, Cleveland, OH, USA), at a dose of 0.04 mmol/kg using a T1-weighted fast spin-echo axial sequence with respiratory gating (TR=305 ms, TE=11 ms, FOV=40×40 mm, slice thickness=1 mm, number of slices=15, Nav=2, matrix=256×248). […]
# as §2
# [8] = DLD1-DR over DLD-1 tumors, 40 μmol/kg MT218
substance,measurement,setting,value
"ZD2-N3-Gd(HP-DO3A) (TVRTSAD; also: conjugated to Gd(HP-DO3A) by click reaction of alkynyl-ZD2 with N3-Gd(HP-DO3A), residue of attachment not given here, Gd complex) [MT218, EDB-FN-targeted MRI contrast agent; ZD2 peptide conjugated to the clinical macrocyclic agent Gd(HP-DO3A)]",increase of CNR,[1],6 fold
same,average maximum enhancement (CNR),[2],3.81±0.25
same,average maximum enhancement (CNR),[3],2.61±0.17
same,signal enhancement vs pre-contrast,[4],Strong signal enhancement
same,higher CNRs over the non-resistant tumors,[5]; [8],2.2 fold
same,increase in CNR over the non-resistant tumors,[5]; [8],120%
same,higher CNRs over pre-contrast,"[5]; DLD1-DR tumors, 40 μmol/kg MT218, 25 min post-injection",3.3 fold
same,signal enhancement vs pre-contrast,[6],Strong signal enhancement
same,average maximum enhancement (CNR),[7],1.80±0.17
